Measurements from patent publication US12533343B2, “Method for preparing (−)-cibenzoline succinate” (CELLTRION, INC., priority 2018, dated 2026).

Experiments:
Assay type in all cases: physicochemical
[1] = Accelerated stability test; details: for Assay by potentiometry (on dried basis) / Chiral purity by HPLC S-Isomer Content / Identification by IR / Loss on drying at 105° C. for 3 hours / Related substance by HPLC Single maximum unknown impurity / Related substance by HPLC Total impurity: 40±2° C., RH 75±5%
Source text: (§1) <Packing details>—Primary packing: (−)-Cibenzoline succinic acid salt obtained by Example 4 shall be packed in transparent LDPE bag, twist and tie with Strip seal. • Secondary packing: The above bag shall be kept in Black color LDPE bag, twist and tie with Strip seal. • Tertiary packing: The above bag shall be kept Triple laminated aluminum bag with heat seal. Keep this bag in HDPE drum and close with lid.

[2] = Long-term storage stability test; details: for Assay by potentiometry (on dried basis) / Chiral purity by HPLC S-Isomer Content / Identification by IR / Loss on drying at 105° C. for 3 hours / Related substance by HPLC Single maximum unknown impurity / Related substance by HPLC Total impurity: 25±2° C., RH 60±5%
Description: And related substances was measured by HPLC under below conditions.
as §1

[3] = Particle size analysis
Source text: The powder sample was dispersed with a dispersion pressure of 2 bar.
The accompanying Table 9 (ref. 2019 USP 42 NF 37 Volume 4 physical tests <811> powder fineness) indicates particle size distribution associated with corresponding values.

[4] = Hygroscopicity; details: 25±1° C., 24 hours, 80±2% RH
Source text: The hygroscopicity was to describe the water vapor uptake behavior of solid by mass changes.
The results of the hygroscopicity study shall be interpreted based on the criteria in Table 11 (ref. EUROPEAN PHARMACOPOEIA 9.0 volume 1 5.11. characters section in monographs).

[5] = powder dispersed at 2 bar, listed as (−)-Cibenzoline succinic acid salt

## O=C(O)CCC(=O)O.c1ccc(C2(c3ccccc3)C[C@@H]2C2=NCCN2)cc1 [Example 4, (−)-Cibenzoline succinic acid salt]
[1]; 1-month
  Assay by potentiometry (on dried basis): 100.1 % w/w
  Chiral purity by HPLC S-Isomer Content: 100.0 % Area normalization
  Identification by IR: Complies
  Loss on drying at 105° C. for 3 hours: 0.15 % w/w
  Related substance by HPLC Single maximum unknown impurity: 0.01 % w/w
  Related substance by HPLC Total impurity: 0.01 % w/w
[1]; 2-month
  Assay by potentiometry (on dried basis): 100.3 % w/w
  Chiral purity by HPLC S-Isomer Content: 100.0 % Area normalization
  Identification by IR: Complies
  Loss on drying at 105° C. for 3 hours: 0.12 % w/w
[1]; 3-month
  Assay by potentiometry (on dried basis): 100.1 % w/w
  Chiral purity by HPLC S-Isomer Content: 100.0 % Area normalization
  Identification by IR: Complies
  Loss on drying at 105° C. for 3 hours: 0.09 % w/w
[1]; 6-month
  Assay by potentiometry (on dried basis): 99.6 % w/w
  Chiral purity by HPLC S-Isomer Content: 100.0 % Area normalization
  Identification by IR: Complies
  Loss on drying at 105° C. for 3 hours: 0.10 % w/w
[1]; Initial
  Assay by potentiometry (on dried basis): 100.1 % w/w
  Chiral purity by HPLC S-Isomer Content: 100.0 % Area normalization
  Identification by IR: Complies
  Loss on drying at 105° C. for 3 hours: 0.11 % w/w
  Related substance by HPLC Single maximum unknown impurity: 0.01 % w/w
  Related substance by HPLC Total impurity: 0.01 % w/w
[1]; accelerated conditions
  stability conclusion: excellent stability
[1]; accelerated stability test section
  change of (S)-form to (R)-form: not changed to (R)-form
[1]; six months, accelerated conditions
  white crystalline powder form over storage: uniformly maintained
[2]; 1-month
  Assay by potentiometry (on dried basis): 99.9 % w/w
  Chiral purity by HPLC S-Isomer Content: 100.0 % Area normalization
  Identification by IR: Complies
  Loss on drying at 105° C. for 3 hours: 0.04 % w/w
  Related substance by HPLC Single maximum unknown impurity: 0.01 % w/w
  Related substance by HPLC Total impurity: 0.01 % w/w
[2]; 2-month
  Assay by potentiometry (on dried basis): 100.1 % w/w
  Chiral purity by HPLC S-Isomer Content: 100.0 % Area normalization
  Identification by IR: Complies
  Loss on drying at 105° C. for 3 hours: 0.07 % w/w
  Related substance by HPLC Single maximum unknown impurity: 0.01 % w/w
  Related substance by HPLC Total impurity: 0.01 % w/w
[2]; 3-month
  Assay by potentiometry (on dried basis): 100.2 % w/w
  Chiral purity by HPLC S-Isomer Content: 100.0 % Area normalization
  Identification by IR: Complies
  Loss on drying at 105° C. for 3 hours: 0.14 % w/w
[2]; 6-month
  Assay by potentiometry (on dried basis): 100.2 % w/w
  Chiral purity by HPLC S-Isomer Content: 100.0 % Area normalization
  Identification by IR: Complies
  Loss on drying at 105° C. for 3 hours: 0.18 % w/w
[2]; Initial
  Assay by potentiometry (on dried basis): 100.1 % w/w
  Chiral purity by HPLC S-Isomer Content: 100.0 % Area normalization
  Identification by IR: Complies
  Loss on drying at 105° C. for 3 hours: 0.11 % w/w
  Related substance by HPLC Single maximum unknown impurity: 0.01 % w/w
  Related substance by HPLC Total impurity: 0.01 % w/w
[2]; long-term storage conditions
  change of (S)-form to (R)-form: not changed to (R)-form
  stability conclusion: excellent stability
[2]; six months, long-term storage conditions
  white crystalline powder form over storage: uniformly maintained
[3]; USP <811> powder fineness
  Classification (particle size): Very fine
[3]; powder dispersed at 2 bar
  d10: 15.2 μm
  d50: 104 μm
  d90: 265 μm
[3]; [5]
  d50: 104.0 μm
  d90: 265.0 μm
[4]
  Mass change: 0.01%
[4]; Ph. Eur. criteria
  Hygroscopicity evaluation: Non hygroscopic
